Measured values published in patent US20100075907A1, “NEUROMEDIN U RECEPTOR AGONISTS AND USES THEREOF” (priority 2006, published 2010).
Non-standard residues stand in square brackets, D forms with d. Residues, ends and D or L forms follow the SMILES beside them. *: point of attachment. X1 = CC(C)CCC[C@@H](C)[C@H]1CC[C@H]2[C@@H]3CC=C4C[C@@H](OC(=O)C*)CC[C@]4(C)[C@H]3CC[C@]12C; Succinimide(1-Et,3-yl) = CCN1C(=O)CC(*)C1=O; hArg = N=C(N)NCCCC[C@H](N)C(=O)O

How the values were obtained:
[1] = target: T1, Mouse NMUR1-CTG (Mus musculus, UniProt O55040); test: 125I-hNMU-25 binding assay, mouse R1-CTG; set-up: expressed in transfected cells; host or cells: HEK-293 FLP-In cells (pcDNA5)
T1 sequence (O55040 1-428): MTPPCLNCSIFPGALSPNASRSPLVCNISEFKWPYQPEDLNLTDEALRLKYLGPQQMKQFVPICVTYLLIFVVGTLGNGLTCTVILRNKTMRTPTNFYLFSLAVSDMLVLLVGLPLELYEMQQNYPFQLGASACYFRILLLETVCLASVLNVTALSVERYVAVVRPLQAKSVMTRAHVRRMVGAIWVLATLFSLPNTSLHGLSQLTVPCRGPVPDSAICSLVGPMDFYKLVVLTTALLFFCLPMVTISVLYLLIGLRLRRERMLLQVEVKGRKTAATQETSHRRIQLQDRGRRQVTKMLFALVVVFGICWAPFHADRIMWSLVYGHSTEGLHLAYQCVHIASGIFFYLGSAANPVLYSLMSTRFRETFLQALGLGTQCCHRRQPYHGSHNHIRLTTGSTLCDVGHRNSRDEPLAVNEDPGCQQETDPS
Experimental: (§1) Confluent cell monolayers expressing NMU receptors (the HEK cells described above) were harvested with phosphate buffered saline, collected by centrifugation, and resuspended in membrane buffer (50 mM TrisCl pH 7.4, 5 mM MgCl2, 1× Protease Inhibitor Cocktail, 10 μM phosphoramidon). After the cell pellet was homogenized, the solution was centrifuged at 18,000 rpm for 20 minutes at 4° C. The pellet was resuspended in membrane buffer to yield a final concentration of 0.5-5 μg/μL of membrane and stored at −80° C.
(§2) Experiments were performed in assay buffer (25 mM TrisCl, pH 7.4, 10 mM MgCl2, 2 mM EDTA, 1× Protease Inhibitor Cocktail, 100 μg/mL Bacitricin, 10 μM phosphoramidon) in 200 μL volumes in a 96-well format using 2-5 μg of membrane and 0.1 nM ^125I-hNMU-25 (about 12,000 cpm/well). For non-specific binding, 1 μM hNMU-25 was added. About 5 μL of peptides were added to measure antagonist activity, and the entire reaction was incubated at room temperature with shaking for 80 minutes. The reaction was terminated by rapid filtration through 0.3% poly-ethylenimine presoaked Millipore 96-well filter plates and washed with ice-cold buffer (5 mM TrisCl pH 7.4, 10 mM MgCl2, 2.5 mM EDTA, 0.04% Triton X-100). Plates were air-dried overnight at room temperature and recovered radioactivity was determined by standard scintillation counting. IC50 values were determined using GraphPad Prism software.
(§3) Concentration-response curves and radioligand-binding data were fitted using Prism (GraphPad Software). Results are summarized below in Tables 8 and 9.

[2] = target: T2, rat NMUR1-ATG (Rattus norvegicus, UniProt Q9JJI5); test: 125I-hNMU-25 binding assay, rat R1-ATG; set-up: expressed in transfected cells; host or cells: HEK-293 FLP-In cells (pcDNA5)
T2 sequence (Q9JJI5 1-425): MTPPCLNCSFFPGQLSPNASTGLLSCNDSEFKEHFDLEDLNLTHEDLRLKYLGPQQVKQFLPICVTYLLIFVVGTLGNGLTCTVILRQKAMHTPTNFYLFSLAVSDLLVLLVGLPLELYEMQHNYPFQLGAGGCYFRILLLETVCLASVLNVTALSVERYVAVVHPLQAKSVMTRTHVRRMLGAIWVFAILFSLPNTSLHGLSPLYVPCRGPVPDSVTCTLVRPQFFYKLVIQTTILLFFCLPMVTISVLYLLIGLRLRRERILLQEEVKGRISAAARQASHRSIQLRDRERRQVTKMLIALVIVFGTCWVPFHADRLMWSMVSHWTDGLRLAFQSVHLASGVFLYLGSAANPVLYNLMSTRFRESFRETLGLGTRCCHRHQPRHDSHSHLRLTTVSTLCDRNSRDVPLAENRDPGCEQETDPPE
Experimental: as §1, §2, §3

[3] = test system: diet-induced obese mice; test: Feeding study in diet-induced obese mice (food intake, body weight); format: in vivo
Excerpt: NMUR1 knockout (Nmur1−/−) mice were generated using standard homologous recombination techniques. Nmur1 mice were subsequently transferred to Taconic Farms where they were either maintained on a 75% C57BL/6×25% 129S6/SvEv mixed genetic background or backcrossed six generations to C57BL/6. NMUR2 knockout (Nmur2−/−) mice were licensed from Deltagen Inc., San Mateo, Calif. and subsequently transferred to Taconic Farms where they were either maintained on a 75% C57BL/6×25% 129/OlaHsd mixed genetic background or backcrossed for seven generations to C57BL/6. NMUR1 and NMUR2 double knockout (Nmur1&2−/−) mice were generated by crossing N6 Nmur1−/− mice to N7 Nmur2−/− mice. Mice were individually housed in Tecniplast cages in a conventional SPF facility. Mice were initially maintained on a regular chow diet and then early in their life were switched to a high fat diet (D12492: 60% kcal from fat; Research Diets, Inc., New Brunswick, N.J.) with ad libitum access to water in a 12-hour light/12-hour dark cycle.
Ad libitum fed male diet-induced obese mice were weighed and dosed either i.p. or s.c. about 30 minutes prior to the onset of the dark phase of the light cycle and provided with a preweighed aliquot of high fat diet D12492 which was then weighed 2 hours and 18 hours (day 1), 42 hours (day 2), 66 hours (day 3), and 90 hours (day 4) after the onset of the initial dark phase. Mice were weighed at the 18, 42, 66 and 90 hour time points.

[4] = test system: NMUR1 and NMUR2; test: NMU receptor subtype selectivity (EC50 ratios human NMUR2/human NMUR1); format: cell-based; conditions: NMUR1 vs NMUR2
Experimental: The present invention provides neuromedin U receptor agonist. The neuromedin U receptor agonist described herein act at NMU receptors, bind the NMU receptors, and stimulate NMU receptor activity. In one aspect, the neuromedin U receptor agonists are specific for one receptor subtype, wherein such specificity is defined as having an IC50 values that is less than about 200 nM in the corresponding NMUR1 or NMUR2 receptor binding assay. Selectivity is based upon functional activity or EC50 ratios at human NMUR2/human NMUR1 for NMUR1-selective peptides and at human NMUR1/human NMUR2 for NMUR2-selective peptides. Further, the selective neuromedin U receptor agonists described herein range from about 21 to 909-fold selective for NMUR1 and from about 2 to 200-fold selective for NMUR2. In another aspect, the neuromedin U receptor agonists are capable of binding and stimulating both the NMUR1 and NMUR2 receptors and have been derivatized to enable the neuromedin U receptor agonists to cross the blood-brain bather and interact with NMU receptors in the brain. The neuromedin U receptor agonists can be used therapeutically and as research tools.

[5] = acute peripheral administration, wild-type mice

CC(C)C[C@@H](NC(=O)[C@H](Cc1ccccc1)NC(=O)[C@H](Cc1ccc(O)cc1)NC(=O)CNC(=O)[C@H](CCCNC(=N)N)NC(=O)[C@H](CO)NC(=O)[C@H](CCC(N)=O)NC(=O)[C@H](CO)NC(=O)[C@H](C)NC(=O)[C@H](Cc1ccccc1)NC(=O)[C@@H]1CCCN1C(=O)[C@H](CO)NC(=O)[C@H](CCC(N)=O)NC(=O)[C@H](Cc1ccccc1)NC(=O)[C@H](CCC(=O)O)NC(=O)[C@H](CCC(=O)O)NC(=O)[C@H](CC(=O)O)NC(=O)[C@@H](NC(=O)[C@H](CCCNC(=N)N)NC(=O)[C@@H](N)Cc1ccccc1)C(C)C)C(=O)N[C@@H](Cc1c[nH]c2ccccc12)C(=O)N[C@@H](CCCNC(=N)N)C(=O)N1CCC[C@H]1C(=O)N[C@@H](CCCNC(=N)N)C(=O)N[C@@H](CC(N)=O)C(N)=O [Agonist H] (H-FRVDEEFQSPFASQSRGYF[dL]WRPRN-NH2; N-terminus assumed)
% inhibition of NMU-25 binding [1]: 83%
IC50 ([1]; binding): 25 nM
% inhibition of NMU-25 binding [2]: 100%
IC50 ([2]; binding): 15.9 nM
food intake [3, 5]: significantly reduced food intake
food intake ([3]; ip 3.25 mmoles/kg, diet-induced obese Nmur1+/+ and Nmur1−/− mice, about 2 and 18 hours): reduces food intake

CC(C)C[C@H](NC(=O)[C@H](Cc1c[nH]c2ccccc12)NC(=O)[C@H](Cc1ccccc1)NC(=O)CNC(=O)[C@H](CCCNC(=N)N)NC(=O)[C@H](CO)NC(=O)[C@H](CCC(N)=O)NC(=O)[C@H](CO)NC(=O)[C@H](C)NC(=O)[C@H](Cc1ccccc1)NC(=O)[C@@H]1CCCN1C(=O)[C@H](CO)NC(=O)[C@H](CCC(N)=O)NC(=O)[C@H](Cc1ccccc1)NC(=O)[C@H](CCC(=O)O)NC(=O)[C@H](CCC(=O)O)NC(=O)[C@H](CC(=O)O)NC(=O)[C@@H](NC(=O)[C@H](CCCNC(=N)N)NC(=O)[C@@H](N)Cc1ccccc1)C(C)C)C(=O)N[C@@H](Cc1ccccc1)C(=O)N[C@@H](CCCNC(=N)N)C(=O)N1CCC[C@H]1C(=O)N[C@@H](CCCCNC(=N)N)C(=O)N[C@@H](CC(N)=O)C(N)=O [Agonist O] (H-FRVDEEFQSPFASQSRGFWLFRP[hArg]N-NH2; N-terminus assumed)
receptor subtype specificity [4]: bispecific

CC(=O)N[C@@H](CSCC(=O)O[C@H]1CC[C@@]2(C)C(=CC[C@H]3[C@@H]4CC[C@H]([C@H](C)CCCC(C)C)[C@@]4(C)CC[C@@H]32)C1)C(=O)NCC(=O)N[C@@H](Cc1ccc(O)cc1)C(=O)N[C@@H](Cc1ccccc1)C(=O)N[C@@H](CC(C)C)C(=O)N[C@@H](Cc1ccccc1)C(=O)N[C@@H](CCCNC(=N)N)C(=O)N1CCC[C@H]1C(=O)N[C@@H](CCCNC(=N)N)C(=O)N[C@@H](CC(N)=O)C(N)=O [NMU11] (Ac-C(X1)GYFLFRPRN-NH2)
extension of serum half-life by PEGylation [3]: two days

CCN1C(=O)CC(SC[C@H](NC(C)=O)C(=O)N[C@@H](Cc2ccccc2)C(=O)N[C@@H](CCCNC(=N)N)C(=O)N[C@H](C(=O)N[C@@H](CC(=O)O)C(=O)N[C@@H](CCC(=O)O)C(=O)N[C@@H](CCC(=O)O)C(=O)N[C@@H](Cc2ccccc2)C(=O)N[C@@H](CCC(N)=O)C(=O)N[C@@H](CO)C(=O)N2CCC[C@H]2C(=O)N[C@@H](Cc2ccccc2)C(=O)N[C@@H](C)C(=O)N[C@@H](CO)C(=O)N[C@@H](CCC(N)=O)C(=O)N[C@@H](CO)C(=O)N[C@@H](CCCNC(=N)N)C(=O)NCC(=O)N[C@@H](Cc2ccc(O)cc2)C(=O)N[C@@H](Cc2ccccc2)C(=O)N[C@H](C)C(=O)N[C@@H](Cc2c[nH]c3ccccc23)C(=O)N[C@@H](CCCNC(=N)N)C(=O)N2CCC[C@H]2C(=O)N[C@@H](CCCNC(=N)N)C(=O)N[C@@H](CC(N)=O)C(N)=O)C(C)C)C1=O (stereo partly drawn) [NMU13] (Ac-C(Succinimide(1-Et,3-yl))FRVDEEFQSPFASQSRGYF[dA]WRPRN-NH2)
% inhibition of NMU-25 binding [1]: 100%
% inhibition of NMU-25 binding [2]: 100%
food intake [3, 5]: significantly reduced food intake

Ac-C2FQSPFASQSRGYFLFRPRN-CONH2 ({Ac-C(PEG 40 kDa)}-FQSPFASQSRGYFLFRPRN-NH2; not fully specified; printed as Ac-C2FQSPFASQSRGYFLFRPRN-CONH2) [NMU20, C2 = Cys(PEG)240 kDa]
extension of serum half-life by PEGylation [3]: three days
Body weight (BW) change (in grams) {relative to vehicle} Day 1 ([3]; 10 mg/kg, Day 1): −2.2 grams
% Food intake (FI) reductions Day 1 ([3]; 10 mg/kg, Day 1, based on vehicle responses): 67%
Body weight (BW) change (in grams) {relative to vehicle} Day 2 ([3]; 10 mg/kg, Day 2): −1.1 grams
% Food intake (FI) reductions Day 2 ([3]; 10 mg/kg, Day 2, based on vehicle responses): 65%
Body weight (BW) change (in grams) {relative to vehicle} Day 3 ([3]; 10 mg/kg, Day 3): +0.3 grams
% Food intake (FI) reductions Day 3 ([3]; 10 mg/kg, Day 3, based on vehicle responses): 23%
